Measured values published in patent publication US11000515B2, “Compounds that interact with the Ras superfamily for the treatment of cancers, inflammatory diseases, rasopathies, and fibrotic disease” (Shy Therapeutics LLC, priority 2017, dated 2021).

How the values were obtained:
[1] = tested on: MAPK phosphorylation in the PANC-1 pancreatic cancer cell line; experiment: MAPK cell-based phosphorylation assay (cell-direct ELISA, EGF-stimulated PANC-1); conditions: Homo sapiens; for inhibition at 30 µM: PANC-1, 6 hours incubation, EGF stimulation; for inhibition at 10 µM: tested at 10 μM (*), PANC-1
Procedure: Cell lines: Tumor-derived pancreatic cancer cell lines PANC-1 were purchased from ATCC and were maintained according to ATCC recommendation.
Method: Cells were plated at 7500 cells/well density in 96-wells plate, starved over night, and the small molecules to be tested were added to the cells in the final concentration of 30 μM with 0.3% DMSO for 6 hours incubation at 37° C. For IC50 value determination, serial dilutions of compounds were added to cells under the same conditions. Next, cells were stimulated with 1.5 ng/ml EGF for 15 min. followed by cell fixation with 4% Formaldehyde in PBS at RT for 20 min. Phosphorylation level of MAPK was determined by Cell-direct ELISA.
Cell-direct ELISA: For each well, cells were permeabilized with PBS-Triton 0.1%, quenched with H2O2 0.6% in PBS-Triton 0.1%, and probed with anti-phospho-MAPK antibodies (R&D Systems) followed by HRP-conjugated secondary antibody (Jackson Immunoresearch, West Grove, Pa.). Next, a solution 50 μM of the fluorescent substrate AmpliFlu Red (Sigma) was added and incubated at RT for 20 min. At the end of the incubation time, fluorescence was measured at 595 nm on a microplate reader (AF2200; Eppendorf, Inc., Hamburg, Germany).

[2] = tested on: MIA-PACA2 pancreatic cancer cell lines; experiment: Cell proliferation assay, MIA-PACA2 (CellTiter 96 AQueous One, 6 days); type: cell-based; conditions: Homo sapiens, MIA PaCa-2, 144 h
Procedure: (§1) Cell lines: Tumor-derived pancreatic cancer cell lines MIA-PACA2 were purchased from ATCC and grown in complete DMEM-High Glucose medium supplemented with penicillin (100 U/mL), streptomycin (100 μg/mL), and 10% heat-inactivated FBS at 37° C. in a humidified incubator with 5% CO2.
Method: Cells are plated at 1000 cells/well density in 96-wells plate, starved ON, and the next day tested small molecules are added to the cells in the final concentration of 30 μM with 0.3% DMSO 3 hours prior to 10% FBS addition. After serum addition cells are incubated for 6 days at 37° C. in a humidified incubator with 5% CO2. For IC50 value determination, serial dilutions of compounds were added to cells under the same conditions.
Assay: At the end of the incubation period, cell cultures are tested using the CellTiter 96® AQueous One Solution Cell Proliferation Assay kit (Promega Corporation, Madison, Wis.) according to the manufacturer specifications. Briefly, assay is performed by adding 20 μl of the CellTiter 96 Aqueous One Solution Reagent directly to culture wells, followed by for 1-4 hours incubation at 37° C. in a humidified incubator with 5% CO2. At the end of incubation time, absorbance at 492 nm is recorded with the 96-well plate reader Eppendorf AF2200, and degree of small molecule-dependent proliferation inhibition is calculated from raw data assuming No Serum cells value as 100%.

[3] = tested on: MIA-PACA2 pancreatic cancer cell lines; experiment: Cell proliferation assay, MIA-PACA2, alternate assay conditions (DAPI staining, 4 days); type: cell-based; conditions: Homo sapiens; for inhibition at 10 µM: MIA PaCa-2, 96 h, tested at 10 μM (*), 4 days, alternate conditions
Procedure: as §1
Method: Cells are plated at 4000 cells/well density in 96-wells plate. The next day tested small molecules are added to the cells in the final concentration of 10 μM in the presence of 0.3% DMSO and 10% FBS. After small molecules addition, cells are incubated for 4 days at 37° C. in a humidified incubator with 5% CO2. For IC50 value determination, serial dilutions of compounds were added to cells under the same conditions.
Assay: At the end of the incubation period, cell cultures are fixed with a 50-50 mixture (v/v) acetone-methanol for 10 minutes at −20° C., followed by rehydration in PBS for 10 minutes at room temperature. After rehydration, cells are stained with DAPI (1 μg/ml) in PBS for 10 minutes at room temperature, followed by 3 washes with PBS. After staining, DAPI fluorescence is recorded (358 nm excitation/461 nm emission) with the 96-well plate reader Molecular Devices Spectramax M3; degree of small mole-cule-dependent proliferation inhibition is calculated from raw data assuming No Serum cells value as 100%.

Rho-A = Rho-A (Homo sapiens (Human), UniProt P61586); experiment: Rac and Rho inhibition assay (labeled GTP); type: binding; conditions: read-out: Rho-A % Inh.
Sequence of Rho-A (P61586 whole entry): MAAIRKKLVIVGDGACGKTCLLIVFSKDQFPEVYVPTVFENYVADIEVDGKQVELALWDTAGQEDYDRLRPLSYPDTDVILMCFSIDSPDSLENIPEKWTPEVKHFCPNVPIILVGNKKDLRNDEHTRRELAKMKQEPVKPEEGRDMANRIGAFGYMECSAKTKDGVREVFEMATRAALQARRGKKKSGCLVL

Rac-1 = Rac-1 (Homo sapiens (Human), UniProt P63000); experiment: Rac and Rho inhibition assay (labeled GTP); type: binding; conditions: read-out: Rac-1 % Inh.
[4] = target: KRas G12D/Q61H double mutant (Homo sapiens (Human), UniProt P01116, G12D/Q61H); experiment: Ras GTP binding domain inhibition assay (labeled GTP); conditions: at 20 μM; read-out: KRas Gl2D Q61H % Inh.
Sequence of KRas G12D/Q61H double mutant (P01116-2 other isoform, or with tags, fused parts or gaps G12D/Q61H): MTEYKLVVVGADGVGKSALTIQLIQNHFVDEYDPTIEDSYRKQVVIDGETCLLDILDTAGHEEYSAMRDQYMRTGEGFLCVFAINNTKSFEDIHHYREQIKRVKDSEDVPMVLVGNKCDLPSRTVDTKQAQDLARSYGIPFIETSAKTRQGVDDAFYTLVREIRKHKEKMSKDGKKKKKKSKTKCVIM
Procedure: Buffer-I: • 50 mM Tris, pH 7.5 • 150 mM NaCl (optional) • 1 mM MgCl2 • 1 mM DTT. • KRas G12D mutant protein was expressed as a His-tagged protein. Purified His-KRas G12D protein was diluted in buffer-I to a final concentration of 3-10 μg/ml. • 200 μl of the diluted His-KRas G12D protein was added to a nickel coated 96 well plate and incubated overnight at 4° C. • The next day, wells were washed 3× in 200 μl of Buffer-I. • Then 200 μl of Buffer-I were added to each well in the presence of 1% DMSO. • Tested compounds were added to the protein-coated wells at a concentration of 20 μM, and incubated for 3 hours at room temperature. While performing IC50 measurements a serial dilution of all tested concentrations was prepared.
Then 22 μl of Cy3-GTP or Cy5-GTP was added to each well. The labeled GTP was incubated for 45 min. at room temperature. • Following GTP incubation, wells were washed 3× in Buffer-I, and 200 μl of Buffer-I were added to each well. • Following washes, the amount of bound labeled-GTP was measured with an Eppendorf AF2200 plate reader.
By substituting KRas G12D mutant protein with KRas G12C mutant, KRas wild type, KRas Q61H mutant, KRas G12D/Q61H double mutant or KRas G12C/Q61H double mutant under the assay conditions described above, KRas G12C mutant KRas wild type, KRas Q61H mutant, KRas G12D/Q61H double mutant and KRas G12C/Q61H double mutant inhibition, respectively, were each determined.

## Cc1nc(-c2ccccn2)nc(O)c1CCC(=O)Nc1ccc(C(C)C)cc1
[1]
  inhibition at 30 µM: 1 to 25%

## COC(=O)c1cc(NCc2nc(CC(C)C)no2)ccc1Cl
[1]
  inhibition at 30 µM: 1 to 25%

## N#Cc1ccc(CC(=O)Nc2ccnc(-c3ccccn3)n2)cc1
[1]
  inhibition at 30 µM: 1 to 25%

## COOCCCCNC(=O)c1csc2nc(-c3ccccn3)nc(N3CCOCC3)c12
[1]
  inhibition at 30 µM: 1 to 25%

## Oc1nc(-c2ccccn2)nc2c(-c3ccccn3)csc12
[1]
  inhibition at 10 µM: 76 to 100%

## COc1ccc(CCC(=O)Nc2nc(-c3ccccn3)nc3sccc23)cn1
[1]
  inhibition at 10 µM: 76 to 100%

## Cn1ccnc1-c1nc(O)c2scc(-c3cccc(OC(F)(F)F)c3)c2n1
[1]
  inhibition at 10 µM: 25 to 50%

## O=C(Nc1nnc(-c2ccccn2)[nH]1)c1ccc(Cc2ccccc2)nc1
[2]
  inhibition at 30 µM: 51 to 75%

## OCCn1ncc2c1CCCC2Nc1nc(-c2ccccn2)nc2scc(-c3ccccc3)c12 (stereo not shown)
[2]
  inhibition at 30 µM: 76 to 100%

## CN(CCCc1n[nH]c(N)c1C#N)c1nc(-c2ccccn2)nc2sc(-c3ccccc3)cc12
[2]
  inhibition at 30 µM: 76 to 100%

## NC(=O)C1CCN(c2nc(-c3ccccn3)nc3scc(-c4ccccc4)c23)CC1
[2]
  inhibition at 30 µM: 76 to 100%

## COc1cnc(CN)[nH]c1=O
[2]
  inhibition at 30 µM: 51 to 75%

## O=C(CCn1ccnc1)Nc1nc(-c2ccccn2)nc2sccc12
[2]
  inhibition at 30 µM: 76 to 100%

## Oc1cccc(-c2csc3c(O)nc(-c4ccccn4)nc23)n1
[3]
  inhibition at 10 µM: 76 to 100%

## COCC(C)Nc1nc(-c2ncccn2)nc2sc(-c3ccncc3)c(-c3ccccc3)c12 (stereo not shown)
[3]
  inhibition at 10 µM: 51 to 75%

## Cc1cccc(-c2c(-c3ccccc3)sc3c(O)nc(-c4nccn4C)nc23)c1
[3]
  inhibition at 10 µM: 25 to 50%

## COc1ccc(-c2c(-c3ccccc3)sc3c(O)nc(-c4cccn4C)nc23)cn1
[3]
  inhibition at 10 µM: 76 to 100%
[3]; MIA PaCa-2, same assay as % inhibition: alternate conditions
  IC50: 501 to 1000 nM

## COc1ccnc(-c2nc(O)c3c(C#N)csc3n2)c1
Rho-A
  inhibition at 20 µM: 25 to 50%
Rac-1
  inhibition at 20 µM: 51 to 75%

## COC1CN=C(CNC(=O)c2cc3nc(-c4ccccn4)nc(O)c3s2)NC1=O (stereo not shown)
[4]
  inhibition at 20 µM: 25 to 50%
Rho-A
  inhibition at 20 µM: 51 to 75%
Rac-1
  inhibition at 20 µM: 51 to 75%

## COc1ccc(COC[C@H]2O[C@@H](c3csc4c(=O)[nH]c(-c5ccccn5)nc34)[C@H](O)[C@@H]2O)cc1
Rho-A
  inhibition at 20 µM: 76 to 100%
Rac-1
  inhibition at 20 µM: 51 to 75%
